# What was measured:
# [1] = Lipophilicity, logD of the compound in Octanol/phosphate buffer at pH 7.4 after 30 mins by shake-flask method; type: physicochemical
# [2] = Intrinsic clearance in human liver microsomes at 1 uM preincubated with NADPH for 5 mins followed by compound addition and measured upto 30 mins by LC-MS/MS analysis; type: ADME, Microsome; settings: read-out: CLH
# [3] = Clearance in rat at 1 mg/kg, po or 0.5 mg/kg, iv; type: ADME, organism-based; settings: in vivo
# [4] = Volume of distribution at steady state in rat at 1 mg/kg, po or 0.5 mg/kg, iv; type: ADME, organism-based; settings: in vivo, read-out: Vdss
# [5] = Bioavailability in rat at 1 mg/kg, po or 0.5 mg/kg, iv; type: ADME, organism-based; settings: in vivo
# [6] = Intrinsic clearance in human hepatocytes assessed per million cells at 1 uM measured upto 30 mins by HPLC analysis; type: ADME, cell-based, Hepatocyte; settings: read-out: CLH
# [7] = Apparent permeability of compound in human Caco-2 cells; type: ADME, cell-based
Compound,logD at 0.5 h [1],microsomal CLint at 1 µM [2],further results
C[C@H]1CC(=O)N(c2cnc(NCc3c(F)ccc4c3CCO4)n3cnnc23)C1,1.8,< 3 µL/min/mg,
Cc1ncccc1-c1cnc(NCc2c(F)ccc3c2CCO3)c2ncc(=O)[nH]c12,2.8,21 µL/min/mg,
CC1(C)CC(=O)N(c2cnc(NCc3c(F)ccc4c3CCO4)n3cnnc23)C1,2,16 µL/min/mg,
CC(=O)N1CCC(c2cnc(NCc3c(F)ccc4c3CCO4)c3cn[nH]c(=O)c23)CC1,2.9,207 µL/min/mg,
CNC(=O)c1ncc(-c2cnc(NCc3c(F)ccc4c3CCO4)c3cn[nH]c(=O)c23)n1C,2.5,24 µL/min/mg,
CN(c1cn(C)cn1)c1cnc(NCc2c(F)ccc3c2CCO3)n2cnnc12,1.6,5.7 µL/min/mg,
Cc1ncc(-c2cnc(NCc3c(F)ccc4c3CCO4)c3cn[nH]c(=O)c23)n1C,1.9,10 µL/min/mg,
CN(C)C(=O)c1cc(-c2cnc(NCc3c(F)ccc4c3CCO4)c3cn[nH]c(=O)c23)n(C)n1,2.1,21 µL/min/mg,
Cc1ncccc1-c1cnc(NCc2c(F)ccc3c2CCO3)c2n[nH]c(=O)n12,2.5,8 µL/min/mg,
Cn1cc(-c2cnc(NCc3c(F)ccc4c3CCO4)c3cn[nH]c(=O)c23)cn1,2.7,21 µL/min/mg,
CN(c1ccccc1)c1cnc(NCc2c(F)ccc3c2CCO3)n2cnnc12,3.6,55 µL/min/mg,
O=C1CCCN1c1cnc(NCc2c(F)ccc3c2CCO3)c2cn[nH]c(=O)c12,1.8,23 µL/min/mg,
O=C(Nc1ccccc1)c1cnc(NCc2c(F)ccc3c2CCO3)n2cnnc12,4.1,14 µL/min/mg,
Cn1nccc1-c1cnc(NCc2c(F)ccc3c2CCO3)c2cn[nH]c(=O)c12,2.6,14 µL/min/mg,
CN(C)Cc1ccc2c(c1)CN(c1cnc(NCc3c(F)ccc4c3CCO4)c3cn[nH]c(=O)c13)C2=O,2.2,32 µL/min/mg,
Cc1ncccc1-c1cnc(NCc2c(F)ccc3c2CCO3)n2cnnc12,2.5,15 µL/min/mg,clearance [3]: 19 mL/min/kg; Vd [4]: 3.7 L/kg; bioavailability [5]: 74%; hepatocyte CLint at 1 µM [6]: 2.6 µL/min/1e6 cells; Papp [7]: 38.7 10^-6 cm/s
Cc1nc(CN(C)C)ccc1-c1cnc(NCc2c(F)ccc3c2CCO3)c2cn[nH]c(=O)c12,2,13 µL/min/mg,Papp ([7]; read-out: Papp): < 0.6 ×10⁻⁶ cm/s
Cc1ncccc1-c1cnc(NCc2c(F)ccc3c2CCO3)c2cn[nH]c(=O)c12,3,41 µL/min/mg,hepatocyte CLint at 1 µM [6]: 4.6 µL/min/1e6 cells
CN(c1ccncc1)c1cnc(NCc2c(F)ccc3c2CCO3)n2cnnc12,1.4,5.2 µL/min/mg,
CN(c1cnn(C)c1)c1cnc(NCc2c(F)ccc3c2CCO3)n2cnnc12,2.2,8.9 µL/min/mg,
Cc1nccn1-c1cnc(NCc2c(F)ccc3c2CCO3)c2cn[nH]c(=O)c12,2.1,8 µL/min/mg,
O=C1CCCN1c1cnc(NCc2c(F)ccc3c2CCO3)n2cnnc12,1.3,< 3 µL/min/mg,
CN(C)Cc1ccc2c(c1)CN(c1cnc(NCc3c(F)ccc4c3CCO4)n3cnnc13)C2=O,1.6,19 µL/min/mg,
CN(c1ccn(C)n1)c1cnc(NCc2c(F)ccc3c2CCO3)c2cn[nH]c(=O)c12,2.4,62 µL/min/mg,
CN(C(=O)c1ccccc1)c1cnc(NCc2c(F)ccc3c2CCO3)n2cnnc12,2.4,> 300 µL/min/mg,

Compound,logD at 0.5 h [1],microsomal CLint at 1 µM [2],further results
O=C(Nc1cnc(NCc2c(F)ccc3c2CCO3)n2cnnc12)c1ccccc1,3,10 µL/min/mg,
O=C(Nc1cnc(NCc2c(F)ccc3c2CCO3)n2cnnc12)c1cccnc1,2,< 3 µL/min/mg,
Fc1ccc2c(c1CNc1ncc(Oc3ccccc3)c3nncn13)CCO2,3.5,18 µL/min/mg,
CN(c1ncco1)c1cnc(NCc2c(F)ccc3c2CCO3)n2cnnc12,2.1,11 µL/min/mg,clearance [3]: 29 mL/min/kg; Vd [4]: 3.1 L/kg; bioavailability [5]: 61%; hepatocyte CLint at 1 µM [6]: 1.4 µL/min/1e6 cells
Cc1ncccc1-c1cnc(NCc2c(F)ccc3c2CCO3)n2c(=O)[nH]nc12,3,36 µL/min/mg,
CNC(=O)c1ccc(-c2cnc(NCc3c(F)ccc4c3CCO4)c3cn[nH]c(=O)c23)c(C)n1,2.9,23 µL/min/mg,clearance [3]: 24 mL/min/kg; Vd [4]: 2.7 L/kg; bioavailability [5]: 53%; hepatocyte CLint at 1 µM [6]: 3 µL/min/1e6 cells; Papp ([7]; read-out: Papp): 54.1 ×10⁻⁶ cm/s
Fc1ccc2c(c1CNc1ncc(Nc3ccccc3)c3nncn13)CCO2,3.3,20 µL/min/mg,
O=C1c2ccc(OCCN3CCCC3)cc2CN1c1cnc(NCc2c(F)ccc3c2CCO3)n2cnnc12,1.6,18 µL/min/mg,clearance [3]: 35 mL/min/kg; Vd [4]: 6.5 L/kg; Papp ([7]; read-out: Papp): < 0.6 ×10⁻⁶ cm/s
C[C@@H]1CC(=O)N(c2cnc(NCc3c(F)ccc4c3CCO4)n3cnnc23)C1,1.8,< 3 µL/min/mg,
COCCC(=O)Nc1cnc(NCc2c(F)ccc3c2CCO3)n2cnnc12,1.4,< 3 µL/min/mg,
Cc1cc(-c2cnc(NCc3c(F)ccc4c3CCO4)c3cn[nH]c(=O)c23)n(C)n1,3,24 µL/min/mg,
Cc1nc(C(=O)N(C)C)ccc1-c1cnc(NCc2c(F)ccc3c2CCO3)c2cn[nH]c(=O)c12,2.1,19 µL/min/mg,clearance [3]: 54 mL/min/kg; Vd [4]: 1.9 L/kg; bioavailability [5]: 22%; hepatocyte CLint at 1 µM [6]: < 1.3 µL/min/1e6 cells; Papp ([7]; read-out: Papp): 1.7 ×10⁻⁶ cm/s
CN(C)Cc1ccc(C(=O)Nc2cnc(NCc3c(F)ccc4c3CCO4)n3cnnc23)cc1,1.8,13 µL/min/mg,
Cc1ncccc1-c1cnc(NCc2c(F)ccc3c2CCO3)c2nn(CC#N)c(=O)n12,2.2,151 µL/min/mg,
CN(c1ccn(C)n1)c1cnc(NCc2c(F)ccc3c2CCO3)n2cnnc12,1.8,11 µL/min/mg,clearance [3]: 29 mL/min/kg; Vd [4]: 3 L/kg; bioavailability [5]: 67%; hepatocyte CLint at 1 µM [6]: < 1 µL/min/1e6 cells
O=C1c2ccccc2CN1c1cnc(NCc2c(F)ccc3c2CCO3)n2cnnc12,2.7,13 µL/min/mg,hepatocyte CLint at 1 µM [6]: 2.7 µL/min/1e6 cells
CN(c1cccnc1)c1cnc(NCc2c(F)ccc3c2CCO3)n2cnnc12,2.6,80 µL/min/mg,
O=C1CC2(CC2)CN1c1cnc(NCc2c(F)ccc3c2CCO3)n2cnnc12,1.9,< 3 µL/min/mg,clearance [3]: 23 mL/min/kg; Vd [4]: 1.4 L/kg; bioavailability [5]: 68%; hepatocyte CLint at 1 µM [6]: 3.5 µL/min/1e6 cells
O=C1c2cnccc2CN1c1cnc(NCc2c(F)ccc3c2CCO3)n2cnnc12,1.6,5 µL/min/mg,
O=C1Cc2ccccc2CN1c1cnc(NCc2c(F)ccc3c2CCO3)n2cnnc12,2.7,16 µL/min/mg,
CNC(=O)c1cc(-c2cnc(NCc3c(F)ccc4c3CCO4)c3cn[nH]c(=O)c23)n(C)n1,2.1,< 3 µL/min/mg,
Cc1nc(CO)ccc1-c1cnc(NCc2c(F)ccc3c2CCO3)c2cn[nH]c(=O)c12,2.4,11 µL/min/mg,
COc1ccccc1C(=O)Nc1cnc(NCc2c(F)ccc3c2CCO3)n2cnnc12,3.1,20 µL/min/mg,
O=C1Oc2ccccc2CN1c1cnc(NCc2c(F)ccc3c2CCO3)n2cnnc12,2.7,24 µL/min/mg,
Cc1nn(C)cc1-c1cnc(NCc2c(F)ccc3c2CCO3)c2cn[nH]c(=O)c12,2.8,27 µL/min/mg,

# From ChEMBL document CHEMBL4831554, “Diverse, Potent, and Efficacious Inhibitors That Target the EED Subunit of the Polycomb Repressive Complex 2 Methyltransferase” (J Med Chem, 2021)
